Measurements: article PMC10044120, “Potent and selective covalent inhibition of the papain-like protease from SARS-CoV-2” (Nature Communications, 2023)
“And” between values parts separate entries of the source, which are not always exact repeats. Equal entries are not always repeated. Where two headings read alike, the source gives them in different places.

Legend:
[1] = target: T1, UCHL1 (Homo sapiens, UniProt P09936); assay: biochemical; conditions: UCHL1 10 nM, Ub-rhodamine110
T1 construct: purchased LifeSensors, Inc. (Malvern, PA)

[2] = tested on: SARS-CoV-2 USA-WA1/2020; assay: microbe, parasite or virus in culture; type: cell-based; conditions: for Virus Titer: USA-WA1/2020
[3] = tested on: Vero E6 cells
[4] = tested on: SARS-CoV-2 isolate USA-WA1/2020; assay: microbe, parasite or virus in culture
[5] = target: T2, USP15 (Homo sapiens, UniProt Q9Y4E8); assay: DUB selectivity assay, USP15 (Ub-rhodamine110); type: biochemical
T2 construct: purchased LifeSensors, Inc. (Malvern, PA)
T2 sequence (Q9Y4E8 1-981): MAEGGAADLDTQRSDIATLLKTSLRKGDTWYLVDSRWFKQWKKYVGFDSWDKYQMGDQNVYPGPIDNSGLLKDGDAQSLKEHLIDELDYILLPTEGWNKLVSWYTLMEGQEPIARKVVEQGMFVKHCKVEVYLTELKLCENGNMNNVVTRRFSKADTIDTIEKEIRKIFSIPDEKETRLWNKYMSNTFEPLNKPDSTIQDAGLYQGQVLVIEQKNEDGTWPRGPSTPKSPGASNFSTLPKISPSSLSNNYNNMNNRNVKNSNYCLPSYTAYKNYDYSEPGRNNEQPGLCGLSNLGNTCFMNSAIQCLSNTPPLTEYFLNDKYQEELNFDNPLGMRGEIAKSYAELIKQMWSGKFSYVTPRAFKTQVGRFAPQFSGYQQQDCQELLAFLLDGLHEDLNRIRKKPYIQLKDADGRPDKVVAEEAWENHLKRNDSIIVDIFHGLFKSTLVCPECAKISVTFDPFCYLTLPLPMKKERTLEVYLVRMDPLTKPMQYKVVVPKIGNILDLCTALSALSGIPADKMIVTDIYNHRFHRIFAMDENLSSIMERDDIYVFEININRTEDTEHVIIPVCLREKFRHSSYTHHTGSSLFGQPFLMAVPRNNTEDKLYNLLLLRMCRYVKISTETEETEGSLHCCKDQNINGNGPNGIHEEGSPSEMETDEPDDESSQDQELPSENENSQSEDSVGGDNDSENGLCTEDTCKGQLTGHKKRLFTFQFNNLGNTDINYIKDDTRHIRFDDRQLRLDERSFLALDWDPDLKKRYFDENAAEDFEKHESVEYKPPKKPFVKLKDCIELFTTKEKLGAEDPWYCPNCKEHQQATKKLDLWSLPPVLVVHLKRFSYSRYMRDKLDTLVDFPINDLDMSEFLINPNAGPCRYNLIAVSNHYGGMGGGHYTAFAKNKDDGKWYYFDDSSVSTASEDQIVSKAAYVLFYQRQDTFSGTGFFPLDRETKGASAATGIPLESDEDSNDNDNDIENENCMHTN

[6] = tested on: SARS-CoV-2 Delta (B.1.617.2); assay: CPE assay, neutral red, Vero E6 cells with 2 μM CP-100356, Delta; type: cell-based; conditions: Severe acute respiratory syndrome coronavirus 2, Vero C1008
[7] = target: SARS-CoV-2 PLpro (Severe acute respiratory syndrome coronavirus 2, UniProt P0DTD1); assay: biochemical; conditions: PLpro 50 nM, Ub-rhodamine110
[8] = tested on: SARS-CoV-2 Omicron (B.1.1.529); assay: CPE assay, neutral red, Vero E6 cells with 2 μM CP-100356, Omicron; type: cell-based; conditions: Severe acute respiratory syndrome coronavirus 2, Vero C1008
[9] = target: PLpro from SARS-CoV-2 (Severe acute respiratory syndrome coronavirus 2, UniProt P0DTD1); assay: biochemical; type: biochemical; design: mean (kobs plot, Supplementary Figure 6 II): unit: min^-1
[10] = Metabolic stability in rat liver microsomes; conditions: Sprague-Dawley
[11] = target: T3, USP30 (Homo sapiens, UniProt Q70CQ3); assay: biochemical; conditions: USP30 10 nM, Ub-rhodamine110
T3 construct: purchased LifeSensors, Inc. (Malvern, PA)

[12] = in vitro; conditions: human

T1 sequence (P09936 whole entry): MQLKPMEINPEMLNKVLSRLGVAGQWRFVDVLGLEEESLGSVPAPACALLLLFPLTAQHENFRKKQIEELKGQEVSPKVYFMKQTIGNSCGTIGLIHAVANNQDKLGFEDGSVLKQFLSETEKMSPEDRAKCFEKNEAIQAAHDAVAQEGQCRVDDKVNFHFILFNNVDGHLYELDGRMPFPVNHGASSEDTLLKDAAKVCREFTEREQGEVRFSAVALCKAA
T3 sequence (Q70CQ3 whole entry): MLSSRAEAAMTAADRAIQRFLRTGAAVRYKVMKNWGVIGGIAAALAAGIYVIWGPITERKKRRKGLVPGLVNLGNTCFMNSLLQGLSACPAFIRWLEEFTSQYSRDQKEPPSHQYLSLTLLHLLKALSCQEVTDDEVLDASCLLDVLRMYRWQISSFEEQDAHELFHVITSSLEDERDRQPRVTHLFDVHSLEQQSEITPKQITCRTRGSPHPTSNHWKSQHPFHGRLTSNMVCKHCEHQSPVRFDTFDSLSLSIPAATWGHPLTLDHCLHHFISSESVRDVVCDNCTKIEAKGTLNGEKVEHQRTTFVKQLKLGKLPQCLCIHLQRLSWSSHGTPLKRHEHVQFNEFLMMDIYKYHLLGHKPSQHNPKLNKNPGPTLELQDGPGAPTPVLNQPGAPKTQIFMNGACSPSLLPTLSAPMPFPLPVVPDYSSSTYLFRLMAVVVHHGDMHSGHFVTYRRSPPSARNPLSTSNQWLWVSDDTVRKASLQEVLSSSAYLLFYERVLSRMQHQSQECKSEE

**Q.** With `COC(=O)/C=C/C(=O)NNC(=O)CCc1ccccc1C(=O)N[C@H](C)c1cccc2ccccc12` [Compound 7, methyl(R,E)-4-(2-(3-(2-((1-(naphthalen-1 yl)ethyl)carbamoyl)phenyl)propanoyl)hydrazineyl)-4-oxobut-2-enoate] as the compound, how does the IC50 [1] read?
**A.** > 30 µM

**Q.** And the EC90 ([2]; Severe acute respiratory syndrome coronavirus 2, Caco-2)?
**A.** 0.26 µM

**Q.** And the “Virus Titer” value ([2]; 0.01 µM)?
**A.** 4.0 CCID50/mL (Log10)

**Q.** And the “Virus Titer” value ([2]; 0.1 µM)?
**A.** 1.7 CCID50/mL (Log10)

**Q.** And the “Virus Titer” value ([2]; 1 µM)?
**A.** <0.7 CCID50/mL (Log10)

**Q.** And the “Virus Titer” value ([2]; 10 µM)?
**A.** <0.7 CCID50/mL (Log10)

**Q.** And the CC50 ([3]; Vero E6, 2 μM CP-100356, Delta rows)?
**A.** > 10 µM

**Q.** What about the CC50 ([3]; Vero E6, 2 μM CP-100356, Omicron rows) of the same compound?
**A.** > 10 µM

**Q.** And the viability at […] ([4]; Severe acute respiratory syndrome coronavirus 2, Vero C1008, read-out: % cell viability, cytopathic effect)?
**A.** 79.3% and 52.3%

**Q.** What about the viability at 2.08 µM ([4]; Severe acute respiratory syndrome coronavirus 2, Vero C1008, read-out: % cell viability, cytopathic effect, 2.08 uM) of the same compound?
**A.** 80.5%

**Q.** And the viability at 16.65 µM ([4]; Severe acute respiratory syndrome coronavirus 2, Vero C1008, read-out: % cell viability, cytopathic effect, 16.65 uM)?
**A.** 88.8%

**Q.** And the inhibition at […] ([4]; Severe acute respiratory syndrome coronavirus 2, Vero C1008, read-out: cytopathic effect, % cell viability)?
**A.** 79.3% and 52.3%

**Q.** And the inhibition at 2.08 µM ([4]; Severe acute respiratory syndrome coronavirus 2, Vero C1008, read-out: cytopathic effect, % cell viability, [inhibitor] 2.08 uM, duplicate wells)?
**A.** 80.5%

**Q.** What about the inhibition at 16.65 µM ([4]; Severe acute respiratory syndrome coronavirus 2, Vero C1008, read-out: cytopathic effect, % cell viability, [inhibitor] 16.65 uM, duplicate wells) of the same compound?
**A.** 88.8%

**Q.** What about the IC50 [5] of the same compound?
**A.** > 30 µM

**Q.** And the EC50 [6]?
**A.** 0.29 µM

**Q.** What about the Hill slope [7] of the same compound?
**A.** 1.06

**Q.** And the EC50 [8]?
**A.** 0.68 µM

**Q.** And the “Kobs, mean” value ([9]; 0.10 uM)?
**A.** 0.00424 min⁻¹

**Q.** What about the “Kobs, mean” value ([9]; 0.20 uM) of the same compound?
**A.** 0.03867 min⁻¹

**Q.** What about the “Kobs, mean” value ([9]; 0.30 uM) of the same compound?
**A.** 0.09135 min⁻¹

**Q.** And the remaining activity at 0.1 µM ([9]; 5 min, read-out: PLpro activity after preincubation, inhibitor 0.1 uM, preincubation 5 min)?
**A.** 95.7%

**Q.** What about the remaining activity at 0.2 µM ([9]; 5 min, read-out: PLpro activity after preincubation, inhibitor 0.2 uM, preincubation 5 min) of the same compound?
**A.** 105%

**Q.** And the remaining activity at 0.3 µM ([9]; 10 min, read-out: PLpro activity after preincubation, inhibitor 0.3 uM, preincubation 10 min)?
**A.** 30.7%

**Q.** What about the remaining activity at 0.3 µM ([9]; 0.5 h, read-out: PLpro activity after preincubation, inhibitor 0.3 uM, preincubation 30 min) of the same compound?
**A.** 17.7%

**Q.** And the remaining activity at 0.1 µM ([9]; 1 h, read-out: PLpro activity after preincubation, inhibitor 0.1 uM, preincubation 60 min)?
**A.** 74.1%

**Q.** And the remaining activity at 0.2 µM ([9]; 1 h, read-out: PLpro activity after preincubation, inhibitor 0.2 uM, preincubation 60 min)?
**A.** 2.6%

**Q.** What about the remaining activity at 0.1 µM ([9]; […], read-out: PLpro activity after preincubation, inhibitor 0.1 uM, preincubation 15 min) of the same compound?
**A.** 104%

**Q.** What about the remaining activity at 0.1 µM ([9]; […], read-out: PLpro activity after preincubation, inhibitor 0.1 uM, preincubation 45 min) of the same compound?
**A.** 75.3%

**Q.** And the remaining activity at 0.2 µM ([9]; […], read-out: PLpro activity after preincubation, inhibitor 0.2 uM, preincubation 15 min)?
**A.** 59.4%

**Q.** What about the remaining activity at 0.2 µM ([9]; […], read-out: PLpro activity after preincubation, inhibitor 0.2 uM, preincubation 90 min) of the same compound?
**A.** 0.514%

**Q.** And the remaining activity at 0.3 µM ([9]; […], read-out: PLpro activity after preincubation, inhibitor 0.3 uM, preincubation 15 min)?
**A.** 26.7%

**Q.** What about the “Time dep. (time-dependent inhibition)” value ([9]; fluorogenic peptide assay, varied preincubation time) of the same compound?
**A.** Yes

**Q.** What about the “mean (kobs plot, Supplementary Figure 6 II)” value ([9]; inhibitor 0.10 uM) of the same compound?
**A.** 0.00424

**Q.** And the “mean (kobs plot, Supplementary Figure 6 II)” value ([9]; inhibitor 0.20 uM)?
**A.** 0.03867

**Q.** What about the “mean (kobs plot, Supplementary Figure 6 II)” value ([9]; inhibitor 0.30 uM) of the same compound?
**A.** 0.09135

**Q.** And the half-life [10]?
**A.** 46 min

**Q.** And the microsomal CLint [10]?
**A.** 151 µL/min/mg

**Q.** What about the IC50 [11] of the same compound?
**A.** > 30 µM

**Q.** And the CC50 [12]?
**A.** > 10 µM

**Q.** What about the cytotoxicity at 0.01 µM [12] of the same compound?
**A.** 8.4%

**Q.** And the cytotoxicity at 0.1 µM [12]?
**A.** 3.4%

**Q.** What about the cytotoxicity at 1 µM [12] of the same compound?
**A.** 0.326%

**Q.** And the cytotoxicity at 10 µM [12]?
**A.** 18.1%

**Q.** What about the cytotoxicity at 0.01 µM ([12]; Percent Cytotoxicity (Neutral Red), Caco-2, SARS2-740 (Delta set), 0.01 µM) of the same compound?
**A.** 0%

**Q.** What about the cytotoxicity at 0.1 µM ([12]; Percent Cytotoxicity (Neutral Red), Caco-2, SARS2-740 (Delta set), 0.1 µM) of the same compound?
**A.** 0%

**Q.** And the cytotoxicity at 1 µM ([12]; Percent Cytotoxicity (Neutral Red), Caco-2, SARS2-740 (Delta set), 1 µM)?
**A.** 8%

**Q.** And the cytotoxicity at 10 µM ([12]; Percent Cytotoxicity (Neutral Red), Caco-2, SARS2-740 (Delta set), 10 µM)?
**A.** 4.4%

**Q.** And the cytotoxicity at 0.01 µM ([12]; Percent Cytotoxicity (Neutral Red), Caco-2, SARS2-740 (USA-WA1/2020 set), 0.01 µM)?
**A.** 1.6%

**Q.** And the cytotoxicity at 0.1 µM ([12]; Percent Cytotoxicity (Neutral Red), Caco-2, SARS2-740 (USA-WA1/2020 set), 0.1 µM)?
**A.** 0%

**Q.** What about the cytotoxicity at 1 µM ([12]; Percent Cytotoxicity (Neutral Red), Caco-2, SARS2-740 (USA-WA1/2020 set), 1 µM) of the same compound?
**A.** 0%

**Q.** And the cytotoxicity at 10 µM ([12]; Percent Cytotoxicity (Neutral Red), Caco-2, SARS2-740 (USA-WA1/2020 set), 10 µM)?
**A.** 39.6%
